# Test results from patent publication EP0349354A1, “Peptides PF10 to PF19 from a retro virus HIV, method for the synthesis of these peptides and their use, particularly in diagnostics” (INSTITUT PASTEUR, priority 1988, dated 1990).
# Where no end group is shown, it is not given here. The star is where a group is joined. Acm = CC(=O)NC*
# What was measured:
# [1] = tested on: anticorps anti-protéine F; assay: Western blot test on peptide spots with sera of HIV-1 infected patients; assay type: binding, humain; set-up: key to réaction avec sérum CHA 1/300, 10µl / réaction avec sérum LOM 1/100, 10µl / réaction avec sérum LOM 1/100, 5µl / réaction avec sérum CHA 1/300, 5µl / réaction avec sérum CHA 1/300, 2µl / réaction avec sérum CHA 1/300, 1µl / réaction avec sérum 1545 1/200, 10µl: ++ signifiant une réaction plus marquée
# Experimental: Pour les besoins du test, les différents peptides PF16, PF19, PF13, PF17 utilisés sont dilués à une concentration de 2 mg/ml.
# Sur une bande de papier BIORAD pour transblot, on dépose différents spots : 1µl, 2µl, 5µl, 10µl.
# Après séchage on pratique un test Western Blot classique en utilisant comme anticorps des sérums de patients infectés par le virus HIV-1, positifs pour la protéine F, à des dilutions variant de 1/100 à 1/300.
# Les peptides testés permettent d'aboutir aux résultats résumés dans le tableau 2 avec trois sérums différents anti-F ++ (++ signifiant une réaction plus marquée).
# [2] = tested on: anticorps, monoclonal anti-protéine F d'un rétrovirus HIV-1; assay: ELISA with mouse monoclonal anti-protein F antibody; assay type: binding, souris; conditions: antibody produced in mouse
# Text: Par ailleurs, les inventeurs ont constaté qu'un anticorps, monoclonal anti-protéine F d'un rétrovirus HIV-1 produit chez la souris reconnait le peptide PF16 de l'invention dans un test ELISA.
# anticorps anti-nef = assay: ELISA for detection of anti-nef antibodies on coated peptides or nef; assay type: binding, humain
substance,measurement,setting,value
"GMDDPEREVLEWRFDSRLAFHHVARELHPEYFKNC(acm) (GMDDPEREVLEWRFDSRLAFHHVARELHPEYFKNC(Acm)) [PF16, protéine F HIV-1, séquence 171-205]","réaction avec sérum 1545 1/200, 10µl","[1]; serum 1545 diluted 1/200, spot 10µl of peptide at 2 mg/ml",++
same,"réaction avec sérum CHA 1/300, 1µl","[1]; serum CHA diluted 1/300, spot 1µl of peptide at 2 mg/ml",++
same,"réaction avec sérum CHA 1/300, 2µl","[1]; serum CHA diluted 1/300, spot 2µl of peptide at 2 mg/ml",++
same,"réaction avec sérum CHA 1/300, 5µl","[1]; serum CHA diluted 1/300, spot 5µl of peptide at 2 mg/ml",++
same,"réaction avec sérum CHA 1/300, 10µl","[1]; serum CHA diluted 1/300, spot 10µl of peptide at 2 mg/ml",++
same,"réaction avec sérum LOM 1/100, 5µl","[1]; serum LOM diluted 1/100 (column outside the heading of positive sera), spot 5µl of peptide at 2 mg/ml",++
same,"réaction avec sérum LOM 1/100, 10µl","[1]; serum LOM diluted 1/100 (column outside the heading of positive sera), spot 10µl of peptide at 2 mg/ml",++
same,reconnaissance par un anticorps monoclonal anti-protéine F,[2],reconnait
same,nombre de sérums anti-nef positifs ayant réagi,"anticorps anti-nef; ELISA, out of 31 anti-nef positive sera",26
same,"intensité de l'immunoréactivité (OD), Serum 1","anticorps anti-nef; Serum 1, anti-nef positive, 500 ng coated per well","+++ (pour OD = 0,8 à 2,0)"
same,"intensité de l'immunoréactivité (OD), Serum 2","anticorps anti-nef; Serum 2, anti-nef positive, 500 ng coated per well","+++ (pour OD = 0,8 à 2,0)"
same,"intensité de l'immunoréactivité (OD), Serum 3","anticorps anti-nef; Serum 3, anti-nef positive, 500 ng coated per well","+ (pour OD = 0,2 à 0,4)"
same,"intensité de l'immunoréactivité (OD), Serum 4","anticorps anti-nef; Serum 4, anti-nef positive, 500 ng coated per well","+++ (pour OD = 0,8 à 2,0)"
same,"intensité de l'immunoréactivité (OD), Serum 5","anticorps anti-nef; Serum 5, anti-nef positive, 500 ng coated per well","+++ (pour OD = 0,8 à 2,0)"
same,"intensité de l'immunoréactivité (OD), Serum 6","anticorps anti-nef; Serum 6, anti-nef positive, 500 ng coated per well","+++ (pour OD = 0,8 à 2,0)"
same,"intensité de l'immunoréactivité (OD), Serum 7","anticorps anti-nef; Serum 7, anti-nef positive, 500 ng coated per well","- (pour une densité optique (OD) inférieure à 0,2)"
same,"intensité de l'immunoréactivité (OD), Serum 8","anticorps anti-nef; Serum 8, anti-nef positive, 500 ng coated per well","- (pour une densité optique (OD) inférieure à 0,2)"
same,"intensité de l'immunoréactivité (OD), Serum 9","anticorps anti-nef; Serum 9, anti-nef positive, 500 ng coated per well","- (pour une densité optique (OD) inférieure à 0,2)"
same,"intensité de l'immunoréactivité (OD), Serum 10","anticorps anti-nef; Serum 10, anti-nef positive, 500 ng coated per well","+ (pour OD = 0,2 à 0,4)"
same,"intensité de l'immunoréactivité (OD), Serum 11","anticorps anti-nef; Serum 11, anti-nef positive, 500 ng coated per well","+ (pour OD = 0,2 à 0,4)"
same,"intensité de l'immunoréactivité (OD), Serum 12","anticorps anti-nef; Serum 12, anti-nef positive, 500 ng coated per well","- (pour une densité optique (OD) inférieure à 0,2)"
same,"intensité de l'immunoréactivité (OD), Serum 13","anticorps anti-nef; Serum 13, anti-nef positive, 500 ng coated per well","++ (pour OD = 0,4 à 0,8)"
same,"intensité de l'immunoréactivité (OD), Serum 14","anticorps anti-nef; Serum 14, anti-nef positive, 500 ng coated per well","- (pour une densité optique (OD) inférieure à 0,2)"
same,"intensité de l'immunoréactivité (OD), Serum 15","anticorps anti-nef; Serum 15, anti-nef positive, 500 ng coated per well","+++ (pour OD = 0,8 à 2,0)"
same,"intensité de l'immunoréactivité (OD), Serum 16","anticorps anti-nef; Serum 16, anti-nef positive, 500 ng coated per well","+++ (pour OD = 0,8 à 2,0)"
same,"intensité de l'immunoréactivité (OD), Serum 17","anticorps anti-nef; Serum 17, anti-nef positive, 500 ng coated per well","++ (pour OD = 0,4 à 0,8)"
same,"intensité de l'immunoréactivité (OD), Serum 18","anticorps anti-nef; Serum 18, anti-nef positive, 500 ng coated per well","+++ (pour OD = 0,8 à 2,0)"
same,"intensité de l'immunoréactivité (OD), Serum 19","anticorps anti-nef; Serum 19, anti-nef positive, 500 ng coated per well","+++ (pour OD = 0,8 à 2,0)"
same,"intensité de l'immunoréactivité (OD), Serum 20","anticorps anti-nef; Serum 20, anti-nef positive, 500 ng coated per well","++ (pour OD = 0,4 à 0,8)"
same,"intensité de l'immunoréactivité (OD), Serum 21","anticorps anti-nef; Serum 21, anti-nef positive, 500 ng coated per well","+++ (pour OD = 0,8 à 2,0)"
same,"intensité de l'immunoréactivité (OD), Serum 22","anticorps anti-nef; Serum 22, anti-nef positive, 500 ng coated per well","+++ (pour OD = 0,8 à 2,0)"
same,"intensité de l'immunoréactivité (OD), Serum 23","anticorps anti-nef; Serum 23, anti-nef positive, 500 ng coated per well","++ (pour OD = 0,4 à 0,8)"
same,"intensité de l'immunoréactivité (OD), Serum 24","anticorps anti-nef; Serum 24, anti-nef positive, 500 ng coated per well","+++ (pour OD = 0,8 à 2,0)"
same,"intensité de l'immunoréactivité (OD), Serum 25","anticorps anti-nef; Serum 25, anti-nef positive, 500 ng coated per well","+++ (pour OD = 0,8 à 2,0)"
same,"intensité de l'immunoréactivité (OD), Serum 26","anticorps anti-nef; Serum 26, anti-nef positive, 500 ng coated per well","+++ (pour OD = 0,8 à 2,0)"
same,"intensité de l'immunoréactivité (OD), Serum 27","anticorps anti-nef; Serum 27, anti-nef positive, 500 ng coated per well","+ (pour OD = 0,2 à 0,4)"
same,"intensité de l'immunoréactivité (OD), Serum 28","anticorps anti-nef; Serum 28, anti-nef positive, 500 ng coated per well","++ (pour OD = 0,4 à 0,8)"
same,"intensité de l'immunoréactivité (OD), Serum 29","anticorps anti-nef; Serum 29, anti-nef positive, 500 ng coated per well","++ (pour OD = 0,4 à 0,8)"
same,"intensité de l'immunoréactivité (OD), Serum 30","anticorps anti-nef; Serum 30, anti-nef positive, 500 ng coated per well","++ (pour OD = 0,4 à 0,8)"
same,"intensité de l'immunoréactivité (OD), Serum 31","anticorps anti-nef; Serum 31, anti-nef positive, 500 ng coated per well","+++ (pour OD = 0,8 à 2,0)"
same,"intensité de l'immunoréactivité (OD), Serum 32","anticorps anti-nef; Serum 32, anti-nef negative control serum, 500 ng coated per well","- (pour une densité optique (OD) inférieure à 0,2)"
same,"intensité de l'immunoréactivité (OD), Serum 33","anticorps anti-nef; Serum 33, anti-nef negative control serum, 500 ng coated per well","- (pour une densité optique (OD) inférieure à 0,2)"
